pIC50: −log10 of the molar value.
Columns and labels:
Carbonic anhydrase 1 = Carbonic anhydrase 1 (Homo sapiens, UniProt P00915)
Description: Inhibition of human recombinant carbonic anhydrase 1 preincubated for 15 mins by stopped flow CO2 hydration method

Carbonic anhydrase 2 = Carbonic anhydrase 2 (Homo sapiens, UniProt P00918)
Description: Inhibition of human recombinant carbonic anhydrase 2 preincubated for 15 mins by stopped flow CO2 hydration method

Carbonic anhydrase 9 = Carbonic anhydrase 9 (Homo sapiens, UniProt Q16790)
Carbonic anhydrase 12 = Carbonic anhydrase 12 (Homo sapiens, UniProt O43570)
Description: Inhibition of human recombinant carbonic anhydrase 12 preincubated for 15 mins by stopped flow CO2 hydration method

Carbonic anhydrase 14 = Carbonic anhydrase 14 (Homo sapiens, UniProt Q9ULX7)
Sequence of Carbonic anhydrase 14 (Q9ULX7 whole entry): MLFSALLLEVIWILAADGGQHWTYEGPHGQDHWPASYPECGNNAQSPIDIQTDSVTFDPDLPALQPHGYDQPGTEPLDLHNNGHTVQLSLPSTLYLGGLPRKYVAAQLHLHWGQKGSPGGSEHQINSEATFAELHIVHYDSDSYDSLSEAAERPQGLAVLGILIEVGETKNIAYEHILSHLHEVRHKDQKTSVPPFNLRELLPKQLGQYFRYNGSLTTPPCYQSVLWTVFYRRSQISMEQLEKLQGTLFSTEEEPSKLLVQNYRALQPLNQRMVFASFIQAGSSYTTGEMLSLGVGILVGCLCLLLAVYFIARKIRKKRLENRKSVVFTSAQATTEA
Description: Inhibition of human recombinant carbonic anhydrase 14 preincubated for 15 mins by stopped flow CO2 hydration method

Sequence of Carbonic anhydrase 1 (P00915 whole entry): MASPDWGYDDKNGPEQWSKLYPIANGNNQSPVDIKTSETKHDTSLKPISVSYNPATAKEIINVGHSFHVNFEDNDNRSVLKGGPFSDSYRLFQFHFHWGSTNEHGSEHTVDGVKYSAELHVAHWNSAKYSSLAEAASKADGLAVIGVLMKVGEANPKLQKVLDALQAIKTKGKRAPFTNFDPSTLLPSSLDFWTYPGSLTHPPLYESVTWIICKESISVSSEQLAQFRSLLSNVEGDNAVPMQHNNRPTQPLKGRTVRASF
Sequence of Carbonic anhydrase 12 (O43570 whole entry): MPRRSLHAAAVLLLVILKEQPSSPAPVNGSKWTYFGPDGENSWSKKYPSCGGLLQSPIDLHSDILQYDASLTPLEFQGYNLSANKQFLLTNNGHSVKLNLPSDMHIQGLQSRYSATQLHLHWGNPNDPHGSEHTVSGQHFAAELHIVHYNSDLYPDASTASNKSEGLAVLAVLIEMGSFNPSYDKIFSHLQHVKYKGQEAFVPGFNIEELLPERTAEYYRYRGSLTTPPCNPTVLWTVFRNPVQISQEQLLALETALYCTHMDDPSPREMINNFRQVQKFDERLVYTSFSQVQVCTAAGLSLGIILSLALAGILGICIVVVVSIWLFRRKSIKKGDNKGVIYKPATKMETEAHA

pIC50 (Carbonic anhydrase 1)	pIC50 (Carbonic anhydrase 2)	pIC50 (Carbonic anhydrase 9)	pIC50 (Carbonic anhydrase 12)	pIC50 (Carbonic anhydrase 14)	Compound
< 5.00	5.04	< 5.00	5.16	6.50	O=P(O)(O)C(Nc1cccc2ccccc12)P(=O)(O)O
< 5.00	5.03	5.08	< 5.00	5.35	O=P(O)(O)C(Nc1ccc(Oc2ccc(Cl)cc2)cc1)P(=O)(O)O
< 5.00	5.13	5.09	< 5.00	5.21	O=P(O)(O)C(Nc1ccc(Oc2ccc(Br)cc2)cc1)P(=O)(O)O
5.26	< 5.00	< 5.00	< 5.00	5.06	O=[N+]([O-])c1cc(NC(P(=O)(O)O)P(=O)(O)O)ccc1F
5.23	< 5.00	< 5.00	7.04	< 5.00	O=P(O)(O)C(Nc1cccc(C(F)(F)F)c1)P(=O)(O)O
< 5.00	< 5.00	5.08	5.06	7.09	O=P(O)(O)C(Nc1cccc(F)c1)P(=O)(O)O
5.34	5.09	< 5.00	7.11	< 5.00	O=P(O)(O)C(Nc1ccc(O)cc1)P(=O)(O)O
5.22	< 5.00	< 5.00	7.05	< 5.00	O=P(O)(O)C(Nc1ccc(C(F)(F)F)cc1)P(=O)(O)O
< 5.00	< 5.00	< 5.00	6.62	< 5.00	O=P(O)(O)C(Nc1ccc(Br)cc1)P(=O)(O)O
5.10	< 5.00	< 5.00	6.38	< 5.00	O=[N+]([O-])c1ccc(NC(P(=O)(O)O)P(=O)(O)O)cc1
< 5.00	< 5.00	< 5.00	6.57	< 5.00	O=P(O)(O)C(Nc1ccc(F)cc1)P(=O)(O)O
< 5.00	< 5.00	< 5.00	< 5.00	5.09	O=P(O)(O)C(Nc1ccc(-c2ccccc2)cc1)P(=O)(O)O
5.08	< 5.00	< 5.00	< 5.00	6.04	O=P(O)(O)C(Nc1cccc(Br)c1)P(=O)(O)O
< 5.00	5.03	5.12	< 5.00	6.51	O=P(O)(O)C(Nc1cccc(-c2ccccc2)c1)P(=O)(O)O

Compound	pIC50 (Carbonic anhydrase 1)	pIC50 (Carbonic anhydrase 2)	pIC50 (Carbonic anhydrase 9)	pIC50 (Carbonic anhydrase 12)	pIC50 (Carbonic anhydrase 14)
O=P(O)(O)C(Nc1ccc(Oc2ccccc2)cc1)P(=O)(O)O	< 5.00	< 5.00	5.09	< 5.00	5.26
O=P(O)(O)C(Nc1ccc(Cl)cc1Cl)P(=O)(O)O [2,4-DICHLOROPHENYLAMINOMETHYLENEBISPHOSPHONIC ACID]	5.15	< 5.00	< 5.00	< 5.00	5.13
O=P(O)(O)C(Nc1ccc(Cl)c(Cl)c1)P(=O)(O)O [3,4-DICHLOROPHENYLAMINOMETHYLENEBISPHOSPHONIC ACID]	< 5.00	< 5.00	< 5.00	< 5.00	5.11
O=[N+]([O-])c1cccc(NC(P(=O)(O)O)P(=O)(O)O)c1 [(3-NITROPHENYLAMINO)METHYLENEDIPHOSPHONIC ACID]	6.09	< 5.00	< 5.00	7.06	< 5.00
Cc1ccc(NC(P(=O)(O)O)P(=O)(O)O)cc1 [(P-TOLYLAMINO)METHYLENEDIPHOSPHONIC ACID]	5.23	< 5.00	< 5.00	6.46	< 5.00
O=P(O)(O)C(Nc1ccccc1)P(=O)(O)O [(PHENYLAMINO)METHYLENEDIPHOSPHONIC ACID]	< 5.00	< 5.00	5.05	6.36	< 5.00
O=P(O)(O)C(O)(Cn1ccnc1)P(=O)(O)O [ZOLEDRONIC ACID]	< 5.00	7.21	5.27	6.50	7.04
